Assay results: patent US7307063B2, “Melanocortin metallopeptides for treatment of sexual dysfunction” (Palatin Technologies, Inc., priority 2001, dated 2007)
Values joined by “and” are separate entries in the source; they are usually repeats but may differ in a detail not shown here. Equal entries are not always repeated. Non-standard residues stand in square brackets, D forms with d. No end group written: not given here. *: point of attachment. Bip = N[C@@H](Cc1ccc(-c2ccccc2)cc1)C(=O)O; dBip = N[C@H](Cc1ccc(-c2ccccc2)cc1)C(=O)O; 2Nal = N[C@@H](Cc1ccc2ccccc2c1)C(=O)O; dIgl = N[C@@H](C(=O)O)C1Cc2ccccc2C1; Hydrocinnamoyl = O=C(CCc1ccccc1)*; Heptanoyl = CCCCCCC(=O)*; Nle = CCCC[C@H](N)C(=O)O; Bn = c1ccc(C*)cc1

Experiments:
MC4-R = molecular target: T1, MC4-R (Homo sapiens, UniProt P32245); test: Competitive binding assay: inhibition of 125I-NDP-α-MSH binding to HEK-293 membranes with cloned human receptor subtype 4; details: Table 6, mean of triplicate
T1 construct: expressed in transfected cells; host or cells: HEK-293
Experimental: (§1) Rhenium-complexed metallopeptides of the formulas given in Table 1 were prepared, with the metallopeptides complexed with rhenium using the rhenium transfer agent ReOCl3(PPh3)2 in the presence of 1,8-Diazabicyclo[5,4,0] undec-7-ene as a base, as disclosed in International Application PCT/US00/16396, filed Jun. 14, 2000, Melanocortin Metallopeptide Constructs, Combinatorial Libraries and Applications, incorporated by reference herein. Affinities of compounds were measured using membranes from HEK-293 cells containing cloned human melanocortin receptor subtypes 3, 4 and 5. MC1-R membranes were isolated from B16—F10 mouse melanoma cells. The assay tube also contained a chosen concentration of the test peptide of this invention, complexed to a rhenium metal ion as indicated, for determining its efficacy in inhibiting the binding of ^125I-NDP-α-MSH to its receptor. Non-specific binding was measured by complete inhibition of binding of ^125I-NDP-α-MSH in the assay with the presence of 1 μM α-MSH. 100% specific binding was defined as the difference in radioactivity (cpm) bound to cell membranes in the absence and presence of 1 μM α-MSH. The cpm obtained in presence of test compounds were normalized with respect to 100% specific binding to determine the percent inhibition of ^125I-NDP-α-MSH binding.
(§2) Peptide sequences set forth in Table 6 were prepared using conventional synthetic means. The resulting sequences were rhenium-complexed to form metallopeptides, with the metallopeptides complexed with rhenium using the rhenium transfer agent ReOCl3(PPh3)2 in the presence of 1,8-Diazabicyclo[5,4,0] undec-7-ene as a base. Percent inhibition was determined as in Example 1 using the Re-complexed metallopeptides, using the same methods as described therein. All measures are means of triplicate determinations.

hMC2-R = molecular target: T2, hMC2-R (Homo sapiens, UniProt P41968); test: Competitive binding assay of additional compounds, Table 6 hMC2-R; details: 1 μM, mean of triplicate
T2 construct: expressed in transfected cells; host or cells: HEK-293
Experimental: [The source words this procedure for another target and reports this target under the same test.] as §1, §2

MC1-R = molecular target: T3, MC1-R (Mus musculus, UniProt Q01727); test: Competitive binding assay: inhibition of 125I-NDP-α-MSH binding to membranes from B16-F10 mouse melanoma cells; details: Table 6, mean of triplicate
T3 construct: MC1-R membranes were isolated from B16—F10 mouse melanoma cells; endogenous in cells; host or cells: B16-F10 mouse melanoma cells
Experimental: as §1, §2

hMC5-R = molecular target: T4, hMC5-R (Homo sapiens, UniProt P33032); test: Competitive binding assay: inhibition of 125I-NDP-α-MSH binding to HEK-293 membranes with cloned human receptor subtype 5; details: Table 6; 1 μM; mean of triplicate
T4 construct: expressed in transfected cells; host or cells: HEK-293
Experimental: as §1, §2

[1] = 1 μM, listed as 3′-Bromo phenyl acetyl-Arg-Arg-D-Phe(4′-Cl)-Cys-Nal 2′-NH2, 1 µM
[2] = 1 μM, listed as Hept-Ser(Bzl)-D-Nal 2′-Arg-Nal 2′-Cys-NH2, 1 µM

T4 sequence (P33032 whole entry): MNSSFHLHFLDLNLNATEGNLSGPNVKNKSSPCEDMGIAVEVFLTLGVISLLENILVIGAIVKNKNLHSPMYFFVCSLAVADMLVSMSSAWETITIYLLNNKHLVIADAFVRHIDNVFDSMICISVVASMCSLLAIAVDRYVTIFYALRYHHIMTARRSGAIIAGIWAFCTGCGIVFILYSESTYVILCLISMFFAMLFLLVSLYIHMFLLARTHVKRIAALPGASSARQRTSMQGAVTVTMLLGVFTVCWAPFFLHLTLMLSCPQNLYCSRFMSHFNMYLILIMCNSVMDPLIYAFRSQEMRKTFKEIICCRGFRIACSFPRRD
T1 sequence (P32245 whole entry): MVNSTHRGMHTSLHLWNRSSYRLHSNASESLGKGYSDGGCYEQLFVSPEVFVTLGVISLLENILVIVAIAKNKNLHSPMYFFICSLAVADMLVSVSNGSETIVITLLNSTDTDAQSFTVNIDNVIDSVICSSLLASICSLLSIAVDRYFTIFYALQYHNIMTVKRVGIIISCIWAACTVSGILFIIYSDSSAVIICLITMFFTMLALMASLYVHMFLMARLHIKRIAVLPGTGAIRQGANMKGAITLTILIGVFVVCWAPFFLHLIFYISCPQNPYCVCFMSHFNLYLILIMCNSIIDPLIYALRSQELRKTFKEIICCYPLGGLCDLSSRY
T2 sequence (P41968 whole entry): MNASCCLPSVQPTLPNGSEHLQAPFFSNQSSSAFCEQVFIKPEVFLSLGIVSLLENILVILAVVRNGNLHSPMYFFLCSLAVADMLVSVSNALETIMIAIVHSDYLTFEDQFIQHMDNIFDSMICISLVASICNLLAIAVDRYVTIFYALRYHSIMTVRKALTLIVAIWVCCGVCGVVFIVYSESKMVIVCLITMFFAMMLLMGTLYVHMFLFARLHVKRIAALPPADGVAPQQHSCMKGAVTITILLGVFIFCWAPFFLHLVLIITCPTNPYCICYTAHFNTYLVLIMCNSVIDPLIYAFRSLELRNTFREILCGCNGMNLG
T3 sequence (Q01727 whole entry): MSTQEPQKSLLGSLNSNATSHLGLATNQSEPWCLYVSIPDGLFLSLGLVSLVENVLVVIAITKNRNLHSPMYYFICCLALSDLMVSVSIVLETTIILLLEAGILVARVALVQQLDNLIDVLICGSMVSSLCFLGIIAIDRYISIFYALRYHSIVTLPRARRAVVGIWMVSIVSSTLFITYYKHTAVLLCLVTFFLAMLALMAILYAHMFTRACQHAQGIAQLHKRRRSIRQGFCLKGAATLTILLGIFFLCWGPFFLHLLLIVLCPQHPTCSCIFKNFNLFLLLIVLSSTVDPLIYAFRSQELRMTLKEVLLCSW

Substance | % Inhibition of Binding hMC4-R (MC4-R; 1 μM) | % Inhibition of Binding hMC2-R (hMC2-R) | % Inhibition of Binding MC1-R (MC1-R; 1 μM) | % Inhibition of Binding hMC5-R (hMC5-R) | further results
Aic-D-Phe-Arg-Trp-Cys-NH2 | 18% | 4% | 9% | 38% | 
3′-Br Phenyl acetyl-Arg-Arg-D-Phe(4′-Cl)-Cys-Nal 1′-NH2 | 84% | 85% | 90% | 89% | 
Ser(Bzl)-D-Phe-Arg-Trp-Cys-NH2 ({Ser(Bzl)}-[dF]RWC-NH2; also: metal complex) | 28% | 0% | 27% | 69% | 
Ac-Nle-Ala-Arg-D-Phe-Arg-Cys-Trp-NH2 (Ac-[Nle]AR[dF]RCW-NH2; not fully specified; printed as Ac-Nle-Ala-Arg-D-Phe-Arg-Cys-Trp-NH2) | 39% | 26% | 92% | 59% | 
Ac-[Nle]AL[dF]RCW-NH2 | 18% | 4% | 81% | 87% | 
[dIgl][dF]RWC-NH2 | 8% | 0% | 2% | 63% | 
NH2-(CH2)6-CO-Ser(Bzl)-D-Nal 2′-Arg-Nal 2′-Cys-NH2 | 95% | 70% | 22% | 100% | 
3′-Phenylpropionyl-D-Phe-Arg-Cys-Trp-NH2 (Hydrocinnamoyl-[dF]RCW-NH2; not fully specified; printed as 3′-Phenylpropionyl-D-Phe-Arg-Cys-Trp-NH2) | 0% | 0% | 3% | 44% | 
Tic-D-Phe(3′-Cl)-Arg-Trp-Cys-NH2 | 62% | 41% | 18% | 76% | 
3′-Br Phenyl acetyl-Arg-Arg-D-Phe(4′-Me)-Cys-NH2 | 99% and 93% | 87% | 94% and 84% | 88% | 
Ser(Bzl)-D-Nal 2′-Arg-Nal 2′-Cys-NH2 | 71% | 23% | 18% | 91% | 
Pro-D-Phe-Arg-Trp-Cys-NH2 (P[dF]RWC-NH2; also: metal complex) | 14% | 0% | 39% | 0% | 
Tic-D-Phe(4′-Cl)-Arg-Trp-Cys-NH2 | 88% | 71% | 45% | 90% | 
3′-Br Phenyl acetyl-Arg-Arg-D-Bip-Cys-Trp-NH2 | 77% | 83% | 91% | 99% | 
[dIgl][dF]RCW-NH2 | 15% | 12% | 49% | 39% | 
3′-Br-Phenylacetyl-His-D-Phe(4′-Cl)-Trp-Cys-NH2 | 3% | 15% | 41% | 40% | 
3′-Br Phenyl acetyl-Arg-Arg-D-Phe(3′-Cl)-Cys-Nal 2′-NH2 | 75% | 68% | 65% | 89% | 
NH2-(CH2)6-CO-Ser(Bzl)-D-Phe(4′-Cl)-Arg-Trp-Cys-NH2 | 94% | 90% | 74% | 100% | % Inhibition of Binding hMC4-R (MC4-R; 0.1 μM): 68%; % Inhibition of Binding hMC2-R (hMC2-R; listed as NH2(CH2)6CO-Ser(Bzl)-D-Phe(4′-Cl)-Arg-Trp-Cys-NH2, 1 µM): 87%; % Inhibition of Binding MC1-R (MC1-R; 0.1 μM): 28%
3′-Bromo phenyl acetyl-Lys-Ala-D-Phe(4′-Me)-Cys-Trp-NH2 | 73% | 19% | 0% | 80% | 

Substance | % Inhibition of Binding hMC4-R (MC4-R; 1 μM) | % Inhibition of Binding hMC2-R (hMC2-R) | % Inhibition of Binding MC1-R (MC1-R; 1 μM) | % Inhibition of Binding hMC5-R (hMC5-R) | further results
3′-Bromo phenyl acetyl-Arg-Ala-D-Phe(4′-Cl)-Cys-NH2 | 59% | 47% | 90% | 15% | 
3′-Br Phenyl acetyl-Lys-Ala-D-Phe(4′-CF3)-Cys-Trp-NH2 | 96% and 74% | 77% | 4% and 10% | 83% | 
D-Tiq-D-Phe-Arg-Cys-Trp-NH2 | 13% | 3% | 43% | 39% | 
3′-Bromo phenyl acetyl-Arg-Thr-D-Phe(4′-Cl)-Cys-NH2 | 1% | 6% | 8% | 2% | 
3′-Bromo phenyl acetyl-Arg-Thr(Bzl)-D-Phe(4′-Cl)-Cys-NH2 | 6% | 5% | 16% | 21% | 
D-Nal 2′-D-Phe-Arg-Cys-Trp-NH2 | 0% | 7% | 50% | 52% | 
[dP][dF]RCW-NH2 | 13% | 0% | 53% | 67% | 
Ac-Nle-Ala-D-Tyr-D-Phe-Arg-Cys-Trp-NH2 (Ac-[Nle]A[dY][dF]RCW-NH2; not fully specified; printed as Ac-Nle-Ala-D-Tyr-D-Phe-Arg-Cys-Trp-NH2) | 1% | 0% | 15% | 0% | 
D-Nal 2′-D-Phe-Arg-Trp-Cys-NH2 | 5% | 0% | 11% | 13% | 
Nal 2′-D-Phe-Arg-Trp-Cys-NH2 ([2Nal][dF]RWC-NH2; also: metal complex) | 20% | 0% | 8% | 62% | 
3′-Br Phenyl acetyl-Arg-Arg-D-Phe(4′-Cl)-Cys-Nal 2′-NH2 | 96% | 95% | 90% |  | % Inhibition of Binding hMC4-R (MC4-R; [1]): 94%; % Inhibition of Binding hMC2-R (hMC2-R; listed as 3′-Bromo phenyl acetyl-Arg-Arg-D-Phe(4′-Cl)-Cys-Nal 2′-NH2, 1 µM): 55%; % Inhibition of Binding MC1-R (MC1-R; [1]): 79%
Heptanoyl-S(Bn)[dBip]R[Bip]C-NH2 |  | 0% | 30% |  | 
Heptanoyl-Ser(Bzl)-D-Nal 2′-Arg-Nal 2′-Cys-NH2 | 91% | 41% | 28% |  | % Inhibition of Binding hMC4-R (MC4-R; [2]): 92%; % Inhibition of Binding hMC2-R (hMC2-R; listed as Hept-Ser(Bzl)-D-Nal 2′-Arg-Nal 2′-Cys-NH2, 1 µM): 62%; % Inhibition of Binding MC1-R (MC1-R; [2]): 25%
Heptanoyl-S(Bn)[dBip]RWC-NH2 |  | 0% | 84% |  | 
Ac-[Nle]AH[dF]RC[Bip]-NH2 |  | 100% | 82% |  | 
Ac-[Nle]AH[dBip]RC[Bip]-NH2 |  | 100% | 77% |  | 
Ac-[Nle]AH[dBip]R[Bip]C-NH2 |  | 100% | 95% |  | 
Ac-[Nle]AH[dF]R[Bip]C-NH2 |  | 100% | 35% |  | 
Ac-[Nle]AH[dBip]RWC-NH2 |  | 100% | 99% |  | 
